Laboratory results: patent US10407488B2, “Therapy for treatment or prevention of conditions associated with bleeding or hypocoagulation” (THE REGENTS OF THE UNIVERSITY OF CALIFORNIA, priority 2013, dated 2019)

Columns and labels:
[1] = system: aPTT clotting time in human plasma; assay: aPTT clotting assay in human plasma with rhAPC; type: biochemical
Method: APC-mediated inactivation of FVa was analyzed in ETP assays and aPTT clotting assays. FVa mutants were incubated with equal volumes of either recombinant human APC (Xigris®) or buffer in human and murine Balb/c plasma.
Plasma (50 μL) was mixed with 50 μL of a PTT reagent (APTT-XL, Pacific Hemostasis) and incubated at 37° C. for 3 minutes in the presence of FVa either with recombinant human APC or buffer. Following addition of 25 μL of 50 mM CaCl2 in HBS, 0.5% BSA, the clotting time was recorded using an ST4 coagulometer (Diagnostica Stago).

[2] = system: thrombin generation in patient plasma; assay: Thrombin generation in plasma of inhibitor patients before and 5 minutes after rhFVIIa infusion, ^superFVa added ex vivo; type: biochemical, human
Text: Normal pooled human plasma and plasma from human FVIII-deficient patients with and without inhibitors (titer specified in Bethesda Units (BU)) was purchased from George King Bio-Medical (Overland Park, Kans., USA). In addition, plasma and clinical information was obtained from two patients with severe FVIII-deficiency (<1% intrinsic FVIII-activity levels) and inhibitors (titers determined in BU by the clinical laboratory using the Nijmegen assay (17) regularly visiting the Hemophilia Treatment Center at the University of California, San Diego (UCSD) after informed consent was obtained. Patient confidentiality safeguards, sample and data acquisition methods were approved by the UCSD Institutional Review Board. Blood was drawn into 3.8% sodium citrate (pH 5.5) at a 9:1 blood/anticoagulant volume ratio, and processed immediately. Plasma was collected and frozen at −80° C. after centrifugation at 2600×g for 15 minutes. The following reagents were used: Thrombin from Enzyme Research Laboratories (South Bend, Ind., USA), hirudin from Calbiochem (San Diego, Calif., USA), Corn trypsin inhibitor (CTI) from Enzyme Research Laboratories, thrombin calibrator from Synapse BV (distributed by Diagnostica Stago), Substrate Z-Gly-Gly-Arg-AMC from Bachem (Bubendorf Switzerland), recombinant human tissue factor (TF), Dade Innovin from Dade Behring (Newark, Del., USA), mouse anti-human FVIII (GMA8015) and isotype antibody (GMA650) from Green mountain antibodies (Burlington, Vt., USA), recombinant human FVIIa, NovoSeven®, from NovoNordisk (Bagsvaerd, Denmark), Phospholipid vesicles (80% phosphatidylcholine (PC), 20% phosphatidylserine (PS)) were purchased from Avanti Lipids (Alabaster, Ala., USA) and prepared as described (18).
(§1) Endogenous thrombin potential (ETP) assays were performed as described (19). Briefly, plasma samples supplemented with CTI, TF, PCPS vesicles and coagulation factors were preincubated with the plasma at 37° C. Thrombin generation was initiated by addition of CaCl2 and Z-Gly-Gly-Arg-AMC in HBS/0.5% BSA. The final reaction mixture contained, 50% plasma, 0.2 pM TF, […] PCPS vesicles, 0.725 μM CTI, 0.5 mM Z-GGR-AMC and 7.6 mM CaCl2 in a total volume of 100 μL. In some experiments, 1.25 μg/ml anti-FVIII antibody was added to the plasma and ETP was determined after 1 hour of preincubation. Fluorescence was measured at excitation/emission wavelengths of […] using Gemini EM fluorescent plate reader (Molecular Devices). Fluorescence time course data were converted to nM thrombin as described (20). ETP, defined as the area under the curve (AUC) and the peak height were determined using Origin or GraphPad Prism software.
This example relates to the experiments the results of which are contained in FIG. 5. […]

[3] = system: thrombin generation in FVIII-deficient plasma; assay: Thrombin generation (ETP) assay in FVIII-deficient plasma; type: biochemical, human; conditions: increasing concentrations of ^superFVa alone
Method: as §1

FVIII-deficient mice = assay: Tail clip bleeding assay in FVIII-deficient mice; type: in vivo, mouse; conditions: 20 minutes
Method: Mice were anesthetized with Isoflurane 3%, placed on temperature controlled heating pads (37° C.), and the distal portion of the tail was cut at 1.5 mm diameter after which the tail was immersed in a predefined volume of 37° C. saline (0.9% NaCl) for 20 minutes. To study effects on bleeding and clot stability, tubes were changed after 10 minutes to collect blood for the first and second 10 minutes separately. Blood loss was determined by the hemoglobin concentration in the saline solution after red cell lysis with 2% acetic acid and measured by absorbance at 490 nm. Using a hemoglobin standard derived from defined blood volumes, blood loss was calculated assuming a hematocrit of 46% and expressed in μL/g body weight. Groups of Balb/c mice were injected intravenously (tail vein) with equal volumes (200 μL) of ^superFVa or saline 2 minutes prior to intravenous injection of rhAPC (Xigris®). Immediately after APC injection tail cut was performed. All agents were diluted in sterile sodium chloride 0.9% for injection (Hospira Inc).
Mice were anesthetized, placed on temperature controlled heating pads (37° C.), and the distal portion of the tail was cut at 1.5 mm diameter after which the tail was immersed in a predefined volume of 37° C. saline (0.9% NaCl) for 20 minutes. Blood loss was determined by the hemoglobin concentration in the saline solution after red cell lysis with 2% acetic acid and measured by absorbance at 405 nm. Using a hemoglobin standard derived from defined blood volumes, blood loss was calculated assuming a hematocrit of 46% and expressed in μL/g body weight. Groups of FVIII-deficient mice were injected intravenously (retro-orbital) within 2 minutes prior to tail cut with equal volumes ([…]) of sterile saline for injection (0.9%, Hospira Inc.), rhFVIII 200 units/kg FVIII (Xyntha®, Pfizer, NY, N.Y., USA) ^superFVa, rhFVIIa (NovoSeven®, NovoNordisk, Bagsvaerd, Denmark) or a combination of ^superFVa and rhFVIIa. All agents were diluted in sterile sodium chloride 0.9% for injection (Hospira Inc). […]

[4] = system: thrombin generation in FVIII-deficient plasma; conditions: von Drygalski et al. JTH 2014; cited from earlier work
[5] = increasing ^superFVa added ex vivo, plasma before and 5 minutes after rhFVIIa infusion

^superFVa: engineered APC-resistant FVa variant (SEQ ID NO:4): R306Q, R506Q, R679Q, Cys609-Cys1691 disulfide, S2183A, B-domain deleted
aPTT ([1]; 0.05 U/mL FVa variants, 10 nM APC, human plasma, ~100 seconds without FVa): fully corrected the aPTT
lower concentration normalizing the aPTT compared to FVa ([1]; human plasma with APC): 100 fold
^superFVa concentration at which ETP plateaued ([2]; Patient A, BU=64): 10 nM
additional increase of ETP [2, 5]: ~3 fold
additional increase of peak height [2, 5]: ~3 fold
^superFVa concentration at which ETP plateaued ([2]; patient with BU=64): 1.76 µg/mL
increase in ETP [3]: ~2.5 fold
increase in peak height [3]: ~2.5 fold
mean blood loss (FVIII-deficient mice; ^superFVa 10 U/kg iv): 25.9 µL/g
mean blood loss (FVIII-deficient mice; ^superFVa 40 U/kg iv): 9.7 µL/g
mean blood loss (FVIII-deficient mice; ^superFVa 200 U/kg iv): 2.5 µL/g
increase of ETP in human FVIII-deficient plasma [4]: approximately 2 fold
